Data as given in PMC12756740, “A GH42 β‑Galactosidase from the Human Isolate Bifidobacterium breve DSM 20213: Biochemical and Transgalactosylation Properties Reveal the Potential for Galacto-oligosaccharides Synthesis” (ACS Omega, 2025).

Target: T1, Bbreβgal-III (Bifidobacterium breve, UniProt D4BMY8)
T1 construct: gene BIFBRE_03435; pET21a(+) NdeI/NotI, His-tagged, E. coli BL21 Star (DE3), IMAC purified
Assay: o-nitrophenol release at […] nm, nonlinear fit with substrate inhibition model
Assay type: biochemical
Conditions: substrate inhibition constant; 50 mM sodium phosphate pH 6.5, 30 °C

T1 sequence (D4BMY8 1-691): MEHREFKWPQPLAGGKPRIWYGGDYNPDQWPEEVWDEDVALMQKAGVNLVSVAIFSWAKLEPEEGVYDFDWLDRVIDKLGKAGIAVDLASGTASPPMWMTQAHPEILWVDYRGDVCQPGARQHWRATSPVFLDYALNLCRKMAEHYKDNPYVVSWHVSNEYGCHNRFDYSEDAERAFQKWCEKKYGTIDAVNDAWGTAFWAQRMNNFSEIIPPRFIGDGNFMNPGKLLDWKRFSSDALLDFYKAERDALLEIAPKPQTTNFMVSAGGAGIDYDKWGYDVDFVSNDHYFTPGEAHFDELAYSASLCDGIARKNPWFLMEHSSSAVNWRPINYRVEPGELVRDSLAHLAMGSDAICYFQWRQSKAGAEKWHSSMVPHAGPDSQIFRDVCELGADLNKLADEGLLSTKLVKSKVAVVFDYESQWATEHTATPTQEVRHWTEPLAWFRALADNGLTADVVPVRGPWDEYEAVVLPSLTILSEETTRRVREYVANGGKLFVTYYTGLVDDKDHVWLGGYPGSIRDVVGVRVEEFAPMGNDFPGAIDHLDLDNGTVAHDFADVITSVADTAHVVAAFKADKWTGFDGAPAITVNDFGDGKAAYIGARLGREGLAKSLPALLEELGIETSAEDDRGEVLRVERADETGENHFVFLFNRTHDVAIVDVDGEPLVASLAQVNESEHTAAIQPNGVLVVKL

O=[N+]([O-])c1ccccc1O[C@@H]1O[C@H](CO)[C@H](O)[C@H](O)[C@H]1O [o-nitrophenyl-β-D-galactopyranoside]
k i,S: 13.84 ± 1.57 mM
